From EP3974434B1, “MACROLIDE DERIVATIVES, PREPARATION METHOD AND APPLICATION THEREOF” (Zhejiang Hisun Pharmaceutical Co., Ltd., priority 2019, dated 2020)

Assays:
BAF3 LMNA-TRKA^WT = test: Cell proliferation assay (CellTiter-Glo), BAF3 LMNA-TRKA WT; format: cell-based; settings: Mus musculus, 72 hours
Protocol: The following method was used to determine the effects of the compounds of the present invention on cell proliferation. BAF3 cells were purchased from National Infrastructure of Cell Line Resource (Beijing Headquarter). For TRKA, BAF3 cells were used to construct […] stable cell lines of BAF3 LMNA-TRKA^WT and BAF3 LMNA-TRKA^G667C.The above […] cell lines were used to determine the inhibition of the compounds on cell activities. The cells were cultured in an RPMI 1640 medium containing 10% fetal bovine serum, 100 U penicillin and 100 µg/mL streptomycin. The cells were cultured in a 5% CO2 incubator at 37°C. The activities of the cells were determined by CellTiter-Glo® Luminescent Cell Viability Assay kit (Promega, article number: G7573).
The experimental methods were operated according to the steps in the kit instruction, and were briefly described as follows: a test compound was first dissolved in DMSO to prepare a storage solution, and then diluted in gradient with the corresponding cell culture medium to prepare a test sample. A final concentration of the compound ranged from 1 µM to 0.15 nM. […] After the culture, 50 µL of CellTiter-Glo detection solution was added to each well, shaken for 5 minutes, and then stood for 10 minutes, and the luminescence values of each well were read on the microplate reader using a Luminance mode. […]

BAF3 LMNA-TRKA^G595R = test: Cell proliferation assay (CellTiter-Glo), BAF3 LMNA-TRKA G595R; format: cell-based; settings: Mus musculus, 72 hours
Protocol: The following method was used to determine the effects of the compounds of the present invention on cell proliferation. […] For TRKA, BAF3 LMNA-TRKA^G595R stably transformed cell line was constructed by BAF3 cells. The above cell line was used to determine the inhibition of the compounds on cell activity. […] The cells were cultured in a 5% CO2 incubator at 37°C. The activity of the cells were determined by CellTiter-Glo® Luminescent Cell Viability Assay kit (Promega, article number: G7573).
The experimental methods were operated according to the steps in the kit instruction, and were briefly described as follows: a test compound was first dissolved in DMSO to prepare a storage solution, and then diluted in gradient with the corresponding cell culture medium to prepare a test sample. […] Cells in logarithmic growth phase were inoculated into a 96-well cell culture plate at a suitable density, and the cells were cultured in a 5% CO2 incubator at 37°C overnight. After adding the sample of the test compound, the cells were continuously cultured for 72 hours. After the culture, 50 µL of CellTiter-Glo detection solution was added to each well, shaken for 5 minutes, and then stood for 10 minutes, and the luminescence values of each well were read on the microplate reader using a Luminance mode.

ALK(G1202R) = molecular target: T1, ALK(G1202R) (Homo sapiens, UniProt Q9UM73, G1202R); test: HTRF KinEASE-TK kinase activity inhibition assay, ALK(G1202R); format: biochemical; settings: ATP 10 µM
T1 construct: purchased SignalChem A19-12HG-10
Text: (§1) The following method was used to determine the inhibition degrees of the compounds of the present invention on the activities of recombinant human ALK(G1202R) and ALK(L1196M, G1202R) kinases in vitro. In this method, HTRF®KinEASE-TK tyrosine kinase kit (article No. 62TK0PEB) of Cisbio company was used, the principle of the kit was based on time-resolved fluorescence resonance energy transfer (TF-FRET), and the inhibitions of the compounds on the activities of the ALK(G1202R) and ALK(L1196M, G1202R) kinases were reflected by determining a phosphorylation degree of a biotinylated polypeptide substrate mediated by ALK kinase. For detailed experimental operation, please refer to the kit instruction. […]
(§2) The experimental flow was briefly described as follows: a test compound was first dissolved in DMSO to prepare a storage solution, and then diluted in gradient with a buffer provided in the kit. […] An ATP Km value concentration of each ALK protein was determined by using an ATP solution diluted in gradient (Sangon Biotech (Shanghai) Co., Ltd., A600311). […] After incubation, fluorescence intensity values of each well at an excitation wavelength of 304 nm, and emission wavelengths of 620 nm and 665 nM were determined in a TF-FRET mode on a microplate reader, and the fluorescence intensity ratio 665/620 of each hole was calculated. […]

ALK(L1196M, G1202R) = molecular target: T2, ALK(L1196M, G1202R) (Homo sapiens, UniProt Q9UM73, G1202R/L1196M); test: HTRF KinEASE-TK kinase activity inhibition assay, ALK(L1196M, G1202R); format: biochemical; settings: ATP 25 µM
T2 construct: purchased SignalChem A19-12NG-10
Text: as §1, §2

T2 sequence (Q9UM73 19-1620 L1196M/G1202R): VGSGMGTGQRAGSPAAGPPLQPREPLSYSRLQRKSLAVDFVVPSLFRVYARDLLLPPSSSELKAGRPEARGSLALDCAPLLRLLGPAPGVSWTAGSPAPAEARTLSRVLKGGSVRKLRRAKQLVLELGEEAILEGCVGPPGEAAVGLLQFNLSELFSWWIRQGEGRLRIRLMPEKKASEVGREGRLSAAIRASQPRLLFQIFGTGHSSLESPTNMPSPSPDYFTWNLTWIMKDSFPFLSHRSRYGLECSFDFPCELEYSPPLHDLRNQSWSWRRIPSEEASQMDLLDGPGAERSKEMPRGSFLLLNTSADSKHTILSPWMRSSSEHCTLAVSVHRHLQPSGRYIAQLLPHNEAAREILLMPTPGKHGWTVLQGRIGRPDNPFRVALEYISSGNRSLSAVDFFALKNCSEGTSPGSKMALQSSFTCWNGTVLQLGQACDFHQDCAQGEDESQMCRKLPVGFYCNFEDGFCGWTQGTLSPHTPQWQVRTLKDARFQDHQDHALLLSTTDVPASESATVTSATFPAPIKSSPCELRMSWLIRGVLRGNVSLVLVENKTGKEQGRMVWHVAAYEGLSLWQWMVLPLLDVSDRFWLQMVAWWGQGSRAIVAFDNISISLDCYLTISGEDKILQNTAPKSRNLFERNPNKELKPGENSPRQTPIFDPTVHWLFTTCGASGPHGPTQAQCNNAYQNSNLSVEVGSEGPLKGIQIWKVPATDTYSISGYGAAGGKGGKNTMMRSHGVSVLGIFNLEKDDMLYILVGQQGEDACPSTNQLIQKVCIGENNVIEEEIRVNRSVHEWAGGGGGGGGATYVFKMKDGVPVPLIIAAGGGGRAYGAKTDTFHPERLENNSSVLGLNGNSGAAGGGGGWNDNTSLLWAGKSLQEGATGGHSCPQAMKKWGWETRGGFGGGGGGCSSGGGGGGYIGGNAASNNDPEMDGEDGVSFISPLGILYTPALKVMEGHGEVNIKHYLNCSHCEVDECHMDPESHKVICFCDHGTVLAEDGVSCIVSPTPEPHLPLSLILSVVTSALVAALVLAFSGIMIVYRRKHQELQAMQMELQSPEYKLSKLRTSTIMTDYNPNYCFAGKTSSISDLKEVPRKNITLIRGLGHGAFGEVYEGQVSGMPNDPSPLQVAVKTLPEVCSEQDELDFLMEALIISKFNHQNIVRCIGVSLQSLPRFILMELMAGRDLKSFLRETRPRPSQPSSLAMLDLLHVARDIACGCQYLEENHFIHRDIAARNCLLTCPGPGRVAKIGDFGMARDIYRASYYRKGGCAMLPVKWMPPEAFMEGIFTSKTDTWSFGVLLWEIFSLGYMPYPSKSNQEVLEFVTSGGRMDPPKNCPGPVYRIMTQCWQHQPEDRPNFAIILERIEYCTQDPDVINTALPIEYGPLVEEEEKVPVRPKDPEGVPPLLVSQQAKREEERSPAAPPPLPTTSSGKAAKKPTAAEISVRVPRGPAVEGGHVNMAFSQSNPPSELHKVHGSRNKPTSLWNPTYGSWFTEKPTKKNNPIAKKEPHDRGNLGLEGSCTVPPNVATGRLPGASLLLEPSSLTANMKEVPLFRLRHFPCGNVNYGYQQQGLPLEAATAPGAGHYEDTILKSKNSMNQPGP
T1 sequence (Q9UM73 19-1620 G1202R): as the sequence (Q9UM73 19-1620 L1196M/G1202R) above, with M1178L counted along it

Row | SMILES | IC50 (BAF3 LMNA-TRKA^WT) [nM] | IC50 (BAF3 LMNA-TRKA^G595R) [nM] | IC50 (ALK(G1202R)) [nM] | IC50 (ALK(L1196M, G1202R)) [nM]
1 | C[C@H]1Nc2ccn3ncc(c3n2)C(=O)NC[C@@]2(C)Cc3cc(F)cc1c3O2 [Example 8, (3R,11R)-6-fluoro-3,11-dimethyl-10-oxa-2,13,17,1 8,21-pentaazapentacyclo[13.5.2.1^8,11.0^4,9.0^18,22]tric osa-1(21),4,6,8,15(22),16,19-heptaen-14-one] | 1.5 | 3.1 | 13.2 | 20.7
2 | C[C@H]1Nc2ccn3nc(N)c(c3n2)C(=O)NC[C@@]2(C)Cc3cc(F)cc1c3O2 [Example 25, (3R,11R)-16-amino-6-fluoro-3,11-dimethyl-10-oxa-2,13,17,18,21-pentaazapentacyclo[13.5.2.1^8,11.0^4,9. 0^18,22]tricosa-1(21),4,6,8,15(22),16,19-heptaen-14-one] | 1.2 | 2.2 | 13.6 | 24.2
